± gives the expanded uncertainty stated by the source.
Assays:
[1] = Crystal; DTA
[2] = Molar enthalpy of transition or fusion; details: Crystal; DSC
[3] = wn = mass fraction of the nth substance listed; details: 101.3 kPa, Liquid, Pycnometric method

Cc1ccc2c(c1)C(=O)OC2=O [4-methylphthalic anhydride]
Normal melting temperature [1]: 88.2 ± 2 °C
Molar enthalpy of transition or fusion [2]: 4.5 ± 0.263 kcal/mol

O=Cc1ccc2ccccc2c1 [β-naphthaldehyde] + CCOC(C)=O
mass density ([3]; 288.15 K, w1 = 0.2851): 944 ± 18 kg/m3
mass density ([3]; 298.15 K, w1 = 0.3937): 957 ± 19 kg/m3
mass density ([3]; 308.15 K, w1 = 0.5686): 975 ± 18 kg/m3

Cc1ccc2c(c1)C(=O)OC2=O [4-methylphthalic anhydride] + CCOC(C)=O
mass density ([3]; 288.15 K, w1 = 0.2202): 933 ± 18 kg/m3
mass density ([3]; 298.15 K, w1 = 0.2878): 948 ± 18 kg/m3
mass density ([3]; 308.15 K, w1 = 0.3605): 964 ± 19 kg/m3
